From patent publication US8309734B2 (Hoffmann-La Roche Inc., priority 2008, dated 2012)

What follows are compounds tested against T1, human GPBAR1 receptor (Homo sapiens, UniProt Q8TDU6) (assay: functional cAMP assay in CHO-dhfr(minus) cells expressing human GPBAR1 receptors). Conditions: cAMP increase (TR-FRET) in CHO-dhfr(minus) cells expressing human GPBAR1; compounds incubated 30 min at 30° C.
T1 construct: expressed in transfected cells
T1 sequence (Q8TDU6 1-330): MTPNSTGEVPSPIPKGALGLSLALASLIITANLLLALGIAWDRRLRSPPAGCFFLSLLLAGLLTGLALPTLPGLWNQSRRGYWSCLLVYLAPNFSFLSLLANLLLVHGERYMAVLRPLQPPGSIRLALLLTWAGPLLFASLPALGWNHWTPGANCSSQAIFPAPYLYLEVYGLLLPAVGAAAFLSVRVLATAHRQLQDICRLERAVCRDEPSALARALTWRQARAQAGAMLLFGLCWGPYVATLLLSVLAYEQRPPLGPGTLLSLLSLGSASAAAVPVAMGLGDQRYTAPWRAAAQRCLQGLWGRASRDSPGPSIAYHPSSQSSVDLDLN
Assay type: cell-based

| EC50 [nM] | SMILES |
| --- | --- |
| 63 | O=C(O)CNC(=O)CCc1cc(Cl)c(Oc2ncccc2C(=O)N2CCN(C3CC3)c3ccccc32)cc1Cl [Example 177, (3-{2,5-Dichloro-4-[3-(4-cyclopropyl-3,4-dihydro-2H-quinoxaline-1-carbonyl)-pyridin-2-yloxy]-phenyl}-propionylamino)-acetic acid] |
| 157 | CN(C(=O)c1ccncc1Oc1cc(Cl)ccc1Cl)c1ccccc1Cl [Example 94, N-(2-Chloro-phenyl)-3-(2,5-dichloro-phenoxy)-N-methyl-isonicotinamide] |
| 192 | O=C(c1cccnc1Oc1cccc(Cl)c1)N1CCCc2ccccc21 [Example 3, [2-(3-Chloro-phenoxy)-pyridin-3-yl]-(3,4-dihydro-2H-quinolin-1-yl)-methanone] |
| 745 | O=C(O)CCc1ccc(S(=O)(=O)N2CCN(C(=O)c3cccnc3Oc3cc(Cl)ccc3Cl)c3ccccc32)cc1 [Example 143, 3-(4-{4-[2-(2,5-Dichloro-phenoxy)-pyridine-3-carbonyl]-3,4-dihydro-2H-quinoxaline-1-sulfonyl}-phenyl)-propionic acid] |
| 1160 | COC(=O)c1ccc(C(=O)N2CCN(C(=O)c3cc(F)cnc3Oc3cc(Cl)ccc3Cl)c3ccccc32)cc1 [Example 162, 4-{4-[2-(2,5-Dichloro-phenoxy)-5-fluoro-pyridine-3-carbonyl]-3,4-dihydro-2H-quinoxaline-1-carbonyl}-benzoic acid methyl ester] |
| 1960 | COC(=O)C1CCN(C(=O)c2cc(F)cnc2Oc2cc(Cl)ccc2Cl)c2ccccc21 (centres unmarked) [Example 148, 1-[2-(2,5-Dichloro-phenoxy)-5-fluoro-pyridine-3-carbonyl]-1,2,3,4-tetrahydro-quinoline-4-carboxylic acid methyl ester] |
| 53 | O=C(c1cccnc1Oc1ccc(F)c(Cl)c1)N1CCCc2ccccc21 [Example 10, [2-(3-Chloro-4-fluoro-phenoxy)-pyridin-3-yl]-(3,4-dihydro-2H-quinolin-1-yl)-methanone] |
| 96 | O=C(c1cc(F)cnc1Oc1ccc(F)c(Cl)c1)N1CCCc2ccccc21 [Example 86, [2-(3-Chloro-4-fluoro-phenoxy)-5-fluoro-pyridin-3-yl]-(3,4-dihydro-2H-quinolin-1-yl)-methanone] |
| 1550 | COc1ccc(C)cc1N(C)C(=O)c1cccnc1Oc1cc(Cl)ccc1Cl [Example 59, 2-(2,5-Dichloro-phenoxy)-N-(2-methoxy-5-methyl-phenyl)-N-methyl-nicotinamide] |
| 473 | CCc1cccc(Oc2ncccc2C(=O)N2CCCc3ccccc32)c1 [Example 20, (3,4-Dihydro-2H-quinolin-1-yl)-[2-(3-ethyl-phenoxy)-pyridin-3-yl]-methanone] |
| 322 | O=C(c1cccnc1Oc1cccc(F)c1)N1CCCc2ccccc21 [Example 18, (3,4-Dihydro-2H-quinolin-1-yl)-[2-(3-fluoro-phenoxy)-pyridin-3-yl]-methanone] |
| 286 | O=C(c1cccnc1Oc1cc(C(F)(F)F)ccc1F)N1CCCc2ccccc21 [Example 144, (3,4-Dihydro-2H-quinolin-1-yl)-[2-(2-fluoro-5-trifluoromethyl-phenoxy)-pyridin-3-yl]-methanone] |
| 149 | O=C(c1cc(F)ccc1Oc1cc(Cl)ccc1Cl)N1CCCc2ccccc21 [Example 113, [2-(2,5-Dichloro-phenoxy)-5-fluoro-phenyl]-(3,4-dihydro-2H-quinolin-1-yl)-methanone] |
| 135 | O=C(c1cccnc1Oc1cc(Cl)ccc1Cl)N1CCOc2ccccc21 [Example 36, [2-(2,5-Dichloro-phenoxy)-pyridin-3-yl]-(2,3-dihydro-benzo[1,4]oxazin-4-yl)-methanone] |
| 841 | CCOC(=O)CCN1CCN(C(=O)c2cc(F)cnc2Oc2cc(Cl)ccc2Cl)c2ccccc21 [Example 156, 3-{4-[2-(2,5-Dichloro-phenoxy)-5-fluoro-pyridine-3-carbonyl]-3,4-dihydro-2H-quinoxalin-1-yl}-propionic acid ethyl ester] |
| 54 | O=C(c1cccnc1Oc1cc(Cl)c(Br)cc1Cl)N1CCN(C2CC2)c2ccccc21 [Example 163, [2-(4-Bromo-2,5-dichloro-phenoxy)-pyridin-3-yl]-(4-cyclopropyl-3,4-dihydro-2H-quinoxalin-1-yl)-methanone] |
| 102 | O=C(c1ccccc1Oc1cc(Cl)ccc1Cl)N1CCCc2cc(F)c(F)cc21 [Example 111, [2-(2,5-Dichloro-phenoxy)-phenyl]-(6,7-difluoro-3,4-dihydro-2H-quinolin-1-yl)-methanone] |
| 132 | O=C(O)/C=C/c1cc(Cl)c(Oc2ncccc2C(=O)N2CCN(C3CC3)c3ccccc32)cc1Cl [Example 172, 3-{2,5-Dichloro-4-[3-(4-cyclopropyl-3,4-dihydro-2H-quinoxaline-1-carbonyl)-pyridin-2-yloxy]-phenyl}-acrylic acid] |
| 630 | CC1CCc2ccccc2N1C(=O)c1cc(F)cnc1Oc1cc(Cl)ccc1Cl (centres unmarked) [Example 80, [2-(2,5-Dichloro-phenoxy)-5-fluoro-pyridin-3-yl]-(2-methyl-3,4-dihydro-2H-quinolin-1-yl)-methanone] |

| EC50 [nM] | SMILES |
| --- | --- |
| 607 | CC(C)N1CCN(C(=O)c2cccnc2Oc2cc(Cl)ccc2Cl)c2ccccc21 [Example 124, [2-(2,5-Dichloro-phenoxy)-pyridin-3-yl]-(4-isopropyl-3,4-dihydro-2H-quinoxalin-1-yl)-methanone] |
| 173 | O=C(c1ccncc1Oc1ccc(F)c(Cl)c1)N1CCCc2cc(F)ccc21 [Example 104, [3-(3-Chloro-4-fluoro-phenoxy)-pyridin-4-yl]-(6-fluoro-3,4-dihydro-2H-quinolin-1-yl)-methanone] |
| 436 | O=C(c1cccnc1Oc1cc(Cl)ccc1Cl)N1CCCc2cc(Cl)ccc21 [Example 71, (6-Chloro-3,4-dihydro-2H-quinolin-1-yl)-[2-(2,5-dichloro-phenoxy)-pyridin-3-yl]-methanone] |
| 357 | CN(C(=O)c1cccnc1Oc1cc(Cl)ccc1Cl)c1ccccc1-n1cccc1 [Example 65, 2-(2,5-Dichloro-phenoxy)-N-methyl-N-(2-pyrrol-1-yl-phenyl)-nicotinamide] |
| 92 | O=C(c1ccncc1Oc1cc(Cl)ccc1Cl)N1CCOc2ccccc21 [Example 185, [3-(2,5-Dichloro-phenoxy)-pyridin-4-yl]-(2,3-dihydro-benzo[1,4]oxazin-4-yl)-methanone] |
| 53 | CCOC(=O)CN1CCN(C(=O)c2cc(F)cnc2Oc2cc(Cl)ccc2Cl)c2ccccc21 [Example 154, {4-[2-(2,5-Dichloro-phenoxy)-5-fluoro-pyridine-3-carbonyl]-3,4-dihydro-2H-quinoxalin-1-yl}-acetic acid ethyl ester] |
| 686 | CCN(C(=O)c1cc(F)cnc1Oc1cc(Cl)ccc1Cl)c1ccccc1 [Example 84, 2-(2,5-Dichloro-phenoxy)-N-ethyl-5-fluoro-N-phenyl-nicotinamide] |
| 149 | O=C(c1cccnc1Oc1cc(F)cc(Cl)c1)N1CCCc2ccccc21 [Example 13, [2-(3-Chloro-5-fluoro-phenoxy)-pyridin-3-yl]-(3,4-dihydro-2H-quinolin-1-yl)-methanone] |
| 1650 | CN(C(=O)c1cccnc1Oc1cc(Cl)ccc1Cl)c1ccccc1N [Example 134, N-(2-Amino-phenyl)-2-(2,5-dichloro-phenoxy)-N-methyl-nicotinamide] |
| 103 | CN(C(=O)c1cccnc1Oc1cc(Cl)ccc1Cl)c1ccccc1Cl [Example 40, N-(2-Chloro-phenyl)-2-(2,5-dichloro-phenoxy)-N-methyl-nicotinamide] |
| 321 | CN(C(=O)c1cccnc1Oc1cc(Cl)ccc1Cl)c1ccccc1C1CC1 [Example 131, N-(2-Cyclopropyl-phenyl)-2-(2,5-dichloro-phenoxy)-N-methyl-nicotinamide] |
| 1830 | O=C(c1cccnc1Oc1cc(Cl)ccc1Cl)N1CCC(N2CC(F)(F)C2)c2ccccc21 (centres unmarked) [Example 130, [2-(2,5-Dichloro-phenoxy)-pyridin-3-yl]-[4-(3,3-difluoro-azetidin-1-yl)-3,4-dihydro-2H-quinolin-1-yl]-methanone] |
| 70 | CCN(C(=O)c1cccnc1Oc1cc(Cl)ccc1Cl)c1ccccc1 [Example 32, 2-(2,5-Dichloro-phenoxy)-N-ethyl-N-phenyl-nicotinamide] |
| 1690 | CC1CCc2ccccc2N1C(=O)c1cccnc1Oc1cc(Cl)ccc1Cl (centres unmarked) [Example 67, [2-(2,5-Dichloro-phenoxy)-pyridin-3-yl]-(2-methyl-3,4-dihydro-2H-quinolin-1-yl)-methanone] |
| 92 | CCc1ccccc1N(C)C(=O)c1cccnc1Oc1cc(Cl)ccc1Cl [Example 45, 2-(2,5-Dichloro-phenoxy)-N-(2-ethyl-phenyl)-N-methyl-nicotinamide] |
| 996 | O=C(c1cccnc1Oc1ccc(Cl)c(Cl)c1)N1CCCc2ccccc21 [Example 6, [2-(3,4-Dichloro-phenoxy)-pyridin-3-yl]-(3,4-dihydro-2H-quinolin-1-yl)-methanone] |
| 644 | Cc1cccc(Oc2ncccc2C(=O)N2CCCc3ccccc32)c1 [Example 8, (3,4-Dihydro-2H-quinolin-1-yl)-(2-m-tolyloxy-pyridin-3-yl)-methanone] |
| 62 | O=C(c1cccnc1Oc1cc(Cl)ccc1Cl)N1CCNc2ccccc21 [Example 122, [2-(2,5-Dichloro-phenoxy)-pyridin-3-yl]-(3,4-dihydro-2H-quinoxalin-1-yl)-methanone] |
| 1070 | O=C(c1cc(F)cnc1Oc1cc(Cl)ccc1Cl)N1CCN(Cc2ccoc2)c2ccccc21 [Example 151, [2-(2,5-Dichloro-phenoxy)-5-fluoro-pyridin-3-yl]-(4-furan-3-ylmethyl-3,4-dihydro-2H-quinoxalin-1-yl)-methanone] |
